Data: a melting point compilation (Tetko et al.; mined from patent text by program, amines drawn as free bases though some values may be those of a salt)

melting point	Compound
100 to 104 °C	COC(=O)N1CCc2ccc(N)cc2CC1
167 to 168 °C	CCCCc1ccc2c(c1)C(=O)N(c1ccc3c(ccn3C)c1)C2
70 to 72 °C	O=C(NCCSCc1cccc(Br)c1)c1c(Br)cccc1Br
164 to 168 °C	CC(C#N)(C(O)c1ccc(Cl)cc1Cl)n1cncn1 (stereo not drawn)
137 °C	Cc1ccc(SC(Cc2ccc(OCCN(C)c3nc4ccccc4o3)cc2)C(=O)O)cc1 (stereo not drawn)
95 to 96 °C	OC1(c2ccc3c(c2)OCO3)CCC2(CC1)OCCO2
148 to 151 °C	N#CCc1cccc(Cc2nc3c(F)c(F)cc(F)c3s2)c1Cl
176 to 178 °C	O=C(O)CCCN1C(=O)c2ccc([N+](=O)[O-])cc2C1=O
170 °C	COc1ccc(NC(=O)Oc2ccc3c(c2)N(Cc2ccccc2)CCC3)cc1
147 to 151 °C	COC1OC(COCc2ccccc2)C(OCc2ccccc2)C(NC(C)=O)C1OCc1ccccc1 (stereo not drawn)
165 to 166 °C	COC(=O)CCc1ccc(S(=O)(=O)c2ccc(NC(=O)c3ccc(Cl)c(Cl)c3)cn2)cc1
190 °C	COc1ccc2cc(C3SCCCS3)ccc2c1
188 °C	CCCC(C)(O)C(=O)Nc1cc(Br)[nH]c(=O)c1 (stereo not drawn)
70 to 72 °C	COc1c(N2CC[C@@H](C(C)(C)NC(=O)OC(C)(C)C)C2)c(F)cc2c(=O)c(C(=O)O)cn(C3CC3)c12
96 to 97 °C	CCCCCCOC(=O)c1cccc(-c2cn(C)cc(-n3cccn3)c2=O)c1
112 to 115 °C	CCOC(=O)CNc1ncccc1NC(=O)c1ccc(C)s1
144 to 145 °C	CC(C)(C#N)c1cc(Cn2cncn2)cc(C(N)=O)c1
78 to 80 °C	O=C(O)CC1=C(Cc2ccc3ccccc3c2)C(=O)CCC1
206 °C	Cc1cccc(Nn2c(-c3ccccc3)c(C)[nH]c2=S)c1
289 to 290 °C	CC(C)c1cccc(C(C)C)c1NC(=O)C1c2ccccc2COc2ccc(C(=O)O)cc21 (stereo not drawn)
180 to 182 °C	CN1CCCC1=NC(=O)Nc1ccc([N+](=O)[O-])cc1
244 to 246 °C	Cc1cccc(COc2cccc3c2CN(C2CCC(=O)NC2=O)C3=O)c1 (stereo not drawn)
118 to 119 °C	O=C(Nc1ccc(NC(=O)OCCCl)c([N+](=O)[O-])n1)OCCCl
100 to 103 °C	O=C(CCCCCCC(c1ccccc1)(c1ccccc1)c1ccccc1)NO

melting point	Compound
148 to 150 °C	COc1cc(Cl)ccc1N=c1scc(-c2ccc(Cl)c(S(=O)(=O)N(C)C)c2)n1C
169 to 171 °C	CCCCn1nc2c(N)nc3ccccc3c2c1CCS(=O)(=O)CCC
152 to 156 °C	Nc1nc(CN2CCCN(C(c3ccccc3)c3ccccc3)CC2)cs1
109 °C	O=C1CCOc2c(Cl)cc(Br)cc21
258 to 263 °C	Nc1nc(Cl)c2c(n1)OCC2
172 to 174 °C	CC(CO)(CO)NS(=O)(=O)c1cccc(C#Cc2cnn3c(C(F)F)cc(-c4ccc(C(F)(F)F)cc4)nc23)c1
96 to 99 °C	CC(C1CC1)N1C(=O)c2cc([N+](=O)[O-])cnc2C1=O (stereo not drawn)
87 to 92 °C	Ic1sc2ccccc2c1Oc1ccc(OCc2ccccc2)cc1
138 °C	CC(=O)NCCC[C@H]1NC(=O)[C@@H](Cc2cn(C)c3ccccc23)NC1=O
142 to 144 °C	O=C(Oc1ccc(Cl)cc1Cn1nc(-c2ccc(C(F)(F)F)cc2)oc1=O)c1ccc(CCl)cc1
228 to 230 °C	O=c1ccn(CCO)c(Cc2ccccc2)c1O
107 to 108 °C	O=C(O)c1sc(-c2cccc(Cl)c2)nc1O
157 to 160 °C	Cc1ccc(-c2ccc3nc(C)c(C(=O)Nc4ccc(CN(C)C5CCOCC5)cc4)cc3c2)cc1
133 to 135 °C	CC(=O)SCC1=C(CSC(C)=O)C(=O)C(CSC(C)=O)=C(CSC(C)=O)C1=O
113 to 120 °C	CCCCCCC(C(=O)O)N1Cc2cc(-c3ccccc3-c3nn[nH]n3)ccc2N1 (stereo not drawn)
211 °C	CN(C)c1ccc2nc(N)c(C#N)c(NCc3cccs3)c2c1
106 to 107 °C	Clc1cc(Cc2c(Cl)cccc2Cl)nc(Cl)n1
106 to 107 °C	CC(C)CCOc1ccc(C(=O)c2c(N)sc3c2CCN(Cc2ccccc2)C3)cc1
142 to 145 °C	CC(=O)SCC(CCCc1ccccc1)C(=O)Nc1cccc(C(=O)O)c1 (stereo not drawn)
234 to 239 °C	COc1ccc(C=C2SC(=S)N(CC(=O)O)C2=O)cc1OCc1ccccc1
179 to 206 °C	CCCCCC(=O)Oc1c(-c2ccc(-c3ccccc3)cc2)nc2ccc(F)cc2c1C(=O)O
116 to 118 °C	CC(C#N)(c1ccccc1)c1ccc(Cl)nn1 (stereo not drawn)
155 to 156 °C	CCN1C(=O)C(C)(C)C(=O)N(C)c2cc(CCN(CCn3cc(C)c4oc(C)cc4c3=O)Cc3cnccc3C)ccc21
87 to 88.5 °C	COc1ccc(Oc2cccc(CCN(C)CCN(O)C(N)=O)c2)cc1

melting point	Compound
87 to 89 °C	CCOC(=O)c1cc(F)c2c(c1Cl)C(OCCF)CCS2(=O)=O (stereo not drawn)
184 °C	O=C(Nc1ccc(C(F)(F)F)cc1)C1=NN(c2ccccc2)CC1c1ccc(F)cc1 (stereo not drawn)
108 °C	CC(C)(C)c1ncc(O)c(Cl)n1
> 260 °C	N#Cc1cc(F)c(-n2nc3ccc(Cl)cn3c2=O)cc1O
127 to 128 °C	CCOP(=O)(OCC)c1ccc2cc(I)cc(-c3cccc4ccccc34)c2n1
107 to 108 °C	O=C(O)CCn1c(=O)c2ccccc2n(CCCCN2CCC(OC(c3ccccc3)c3ccccc3)CC2)c1=O
154 to 155 °C	O=[N+]([O-])c1ccc2c(c1)CN(C(c1ccccc1)c1ccccc1)C2
164 to 169 °C	CC(C)c1cccc(C(C)C)c1NC(=O)Nc1cccc2ccc(Oc3ccc4nc(COc5ccc(CC6SC(=O)NC6=O)cc5)n(C)c4c3)cc12 (stereo not drawn)
166 to 168 °C	CCc1cccc(CC)c1NC(=O)NCC1(c2ccccc2)CC1
210 to 211 °C	COc1ccc(C2=NN(C3CCN(C(=O)CN4C(=O)COCC4=O)CC3)C(=O)C(C)(C)C2)cc1OC
214 to 216 °C	COC(=O)C1C(=O)Nc2cccc(C(F)(F)F)c2CC1c1ccccc1OC (stereo not drawn)
162 to 164 °C	CCCNC(=O)c1ccc(-c2ccc3nnn(C(C)(C)c4ccc5ncccc5c4)c3n2)cc1F
100 to 102 °C	Cc1sc(S(N)(=O)=S)cc1C(C)O (stereo not drawn)
160 to 162 °C	Cc1csc2c(CSc3nc4ccccc4[nH]3)nccc12
112 °C	COC(=O)C(CS)NC(=O)C(=O)NCCS (stereo not drawn)
78 to 81 °C	CCc1c(-c2ccc(OCc3ccccc3)cc2)c2ccc3c(OC)ccc1n32
69 to 70 °C	N#Cc1ccccc1-c1ccc(CN=[N+]=[N-])cc1
104 to 106 °C	CCOC(=O)C(=CNc1ncnc2ccc(CC)cc12)C(=O)OCC
260 to 262 °C	COc1c(N2CCC(N)C(C)C2)c(F)c(N)c2c(=O)c(C(=O)O)cn(C3CC3)c12 (stereo not drawn)
99 to 101 °C	NC(=O)Cc1ccc(OCCN(CC(=O)c2ccc(OCc3ccccc3)c(OCc3ccccc3)c2)Cc2ccccc2)cc1
172 °C	CCOc1ccc(-c2ccc(=O)[nH]n2)cc1OC
115 °C	CCOC(=O)c1cnc(-c2ccc(Cl)cc2)nc1-c1ccc(OC)c(OC)c1
225 to 228 °C	O=S(=O)(Nc1ccc(Cl)cc1-c1nc2ccc(S(=O)(=O)N3CCOCC3)cc2[nH]1)c1ccc(Cl)cc1
105 to 107 °C	COC(=O)CN(C)C(=O)c1ccc(OC)c2cc(OC)ccc12

melting point	Compound
227 °C	CNc1nc(-c2ccc(Cl)c(Cl)c2)ncc1N(C)C(=O)N1CCOCC1
154 to 156 °C	CC(C)CC(Sc1ccccc1)c1c(O)cc(-c2ccccc2)oc1=O (stereo not drawn)
64 to 66 °C	NS(=O)(=O)c1cc(C(=O)OCC(=O)N2CCC[C@@H]2CO[N+](=O)[O-])c(NCc2ccco2)cc1Cl
115 to 116 °C	CCOC(=O)C(=C1CCCN1C)c1cc(OC)c(OC)c(OC)c1
119 to 122 °C	OCc1ccc(Nc2ccccc2)nc1
226 to 227 °C	COc1ccc(-c2c(C)nc(N)nc2C2CCN(C(=O)c3ccccc3)CC2)cc1
> 300 °C	CC(=O)Nc1cccc2c1C(=O)c1c-2n[nH]c1-c1ccc(O)cc1
97 to 98 °C	CC(C)C(C(=O)O)c1ccc(Br)cc1 (stereo not drawn)
226 to 227 °C	CC(=O)C1C(Cl)CC2C3CCC4CC(O)CCC4(C)C3C(=O)CC21C (stereo not drawn)
178 to 189 °C	c1nc(Nc2ccc3[nH]ccc3c2)c2sc(-c3ccsc3)cc2n1
195 °C	COc1ccc(CSc2ncn(Cc3cc4c(cc3Cl)OCO4)c2C(=O)O)cc1
195 to 196 °C	CCOc1cccc(-c2cnc3[nH]cc(C(=O)C(C)(C)C)c3n2)c1
120 to 122 °C	CCCC(=O)Nc1c(C)c(C)c2c(c1C)C(c1ccc(C(C)C)cc1)C(C)(C)O2 (stereo not drawn)
> 250 °C	CC(C)n1nc(-c2sc(N)nc2-c2ccccc2)ccc1=O
86 to 87 °C	CC(=O)c1cc(CC2CO2)c(OCCCCC#N)cc1O (stereo not drawn)
108 °C	Cc1ccccc1NC(C#N)c1c(Cl)cccc1Cl (stereo not drawn)
79 to 80 °C	CCCNC(=O)NCCc1c[nH]c2ccc(OC)cc12
208 to 210 °C	O=C(NO)c1ccc2c(c1)CN(C(=O)c1ccc3ncccc3c1)C2
132 to 133 °C	O=C(O)CCCCCc1nc2ccccc2n1-c1ccccc1
238 to 240 °C	CC(=O)Oc1nn(-c2ccc(C)cc2)c(=O)c2c1Nc1cc(Cl)ccc1C2
90 to 92 °C	O=C(O)C(Cc1ccccc1)Oc1c(Br)cc(-c2ccc(-c3c(Cc4ccccc4)oc4ccccc34)cc2)cc1Br (stereo not drawn)
19.3 °C	C=Cc1ccc(-c2ccccn2)cc1

Compound	melting point
COc1ccc(CC(C)NC(=O)C(F)(F)F)cc1 (stereo not drawn)	100 to 102 °C
Cc1c(C2=CCC(c3ccccc3)(N(C)C)CC2)n(CC2CO2)c2ccccc12 (stereo not drawn)	147 to 150 °C
CCOC(=O)c1ncn2c1CNC(=O)c1cc(F)ccc1-2	298 °C
CCOC(=O)CC(=O)NC(=O)N1CC1C#N (stereo not drawn)	121 to 123 °C
